How the values were obtained:
Assay type in all cases: in vivo
Settings in all cases: after four weeks, 0=no damage 100=complete damage
Setaria viridis = assay: Post-emergence action against weeds, Example 2: greenhouse, visual scoring of damage
Experimental: (§1) The plant species listed below were sown in Jiffy pots and cultivated in a greenhouse at a day/night rhythm of 22° C./14° C. At the 2-4-leaf stage, the plants were then treated with an aqueous solution of the compounds in question at the stated dosages. After four weeks, the results were scored visually using the following scheme: 0=no damage 100=complete damage AS/ha=active substance/hectare

Polygonum convolvulus [1] = assay: as above
Experimental: as §1

Abutilon theophrasti = assay: Post-emergence action against weeds, Example 3: greenhouse, visual scoring of damage
Experimental: as §1

Polygonum convolvulus [2] = assay: as above
Experimental: as §1

Digitaria sanguinalis = assay: Post-emergence action against weeds, Example 2: greenhouse, visual scoring of damage
Experimental: as §1

Cc1ccc2c(c1)[C@H](Nc1nc(N)nc([C@@H](C)F)n1)[C@H](C)C2 (racemic) [Compound B-44, 2-amino-4-[(1RS,2RS)-2,6-dimethylindan-1-ylamino]-6-[(1RS)-1-fluorethyl]-1,3,5-triazine]
Damage SETVI (Setaria viridis; 13 g of AS/ha): 3
Damage SETVI (Setaria viridis; 25 g of AS/ha): 5

Cc1ccc2c(c1)[C@H](Nc1nc(N)nc([C@@H](C)F)n1)[C@@H](C)C2 [Compound B-47, 2-amino-4-[(1R,2S)-2,6-dimethylindan-1-ylamino]-6-[(1R)-1-fluoroethyl]-1,3,5-triazine]
Damage POLCO (Polygonum convolvulus [1]; 13 g of AS/ha): 0
Damage POLCO (Polygonum convolvulus [1]; 25 g of AS/ha): 0
Damage ABUTH (Abutilon theophrasti; 13 g of AS/ha): 5
Damage ABUTH (Abutilon theophrasti; 25 g of AS/ha): 15
Damage POLCO (Polygonum convolvulus [2]; 13 g of AS/ha): 0
Damage POLCO (Polygonum convolvulus [2]; 25 g of AS/ha): 0

Cc1ccc2c(c1)[C@H](Nc1nc(N)nc([C@@H](C)F)n1)CC2 [Compound B-22, 2-amino-4-[(1R)-6-methylindan-1-ylamino]-6-[(1R)-1-fluoroethyl]-1,3,5-triazine]
Damage DIGSA (Digitaria sanguinalis; 13 g of AS/ha): 24
Damage DIGSA (Digitaria sanguinalis; 25 g of AS/ha): 55

— patent publication US20100048400A1, “HERBICIDE COMBINATION” (BAYER CROPSCIENCE AG, priority 2007, published 2010)
